Key:
Assay in all cases: relative viability (nuclei count vs DMSO), 5 days (fraction); higher = more cells survive
AZD5582 = compound: C[C@@H](C(=O)N[C@@H](C1CCCCC1)C(=O)N2CCC[C@H]2C(=O)N[C@@H]3[C@@H](CC4=CC=CC=C34)OCC#CC#CCO[C@@H]5CC6=CC=CC=C6[C@@H]5NC(=O)[C@@H]7CCCN7C(=O)[C@H](C8CCCCC8)NC(=O)[C@H](C)NC)NC [AZD5582]
Outline: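 Cells of lung cancer lines were placed in 1536-well plates and kept overnight at 37 °C. Pinning then delivered five library-drug doses (not always all listed), spaced by √10, onto plates anchored with vehicle, and the cells were left 5 days without changing medium. One step fixed, permeabilised and stained them with Hoechst, and MetaXpress counted nuclei in 4× images. Viability, as a median over plates, is treated-well nuclei divided by vehicle-well nuclei, with acceptance only at control CV below 25% and at least one doubling.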

AZD5582 + Pemetrexed = compound: C[C@@H](C(=O)N[C@@H](C1CCCCC1)C(=O)N2CCC[C@H]2C(=O)N[C@@H]3[C@@H](CC4=CC=CC=C34)OCC#CC#CCO[C@@H]5CC6=CC=CC=C6[C@@H]5NC(=O)[C@@H]7CCCN7C(=O)[C@H](C8CCCCC8)NC(=O)[C@H](C)NC)NC [AZD5582] + Nc1nc2[nH]cc(CCc3ccc(C(=O)N[C@@H](CCC(=O)O)C(=O)O)cc3)c2c(=O)[nH]1 [Pemetrexed] (partner 0.2 µM)
Outline: (§1)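 Values are medians from duplicate plates. Each reflects relative viability, defined as the nuclei count of treated wells over that of vehicle wells. Lung cancer cell lines in 1536-well plates were pin-tool dosed one day after seeding with one drug alone or with a fixed anchor-drug dose plus five library-drug doses (not always all listed) in √10 steps, then fixed, stained and imaged at 4× after 5 days.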

AZD5582 + Bortezomib = compound: C[C@@H](C(=O)N[C@@H](C1CCCCC1)C(=O)N2CCC[C@H]2C(=O)N[C@@H]3[C@@H](CC4=CC=CC=C34)OCC#CC#CCO[C@@H]5CC6=CC=CC=C6[C@@H]5NC(=O)[C@@H]7CCCN7C(=O)[C@H](C8CCCCC8)NC(=O)[C@H](C)NC)NC [AZD5582] + CC(C)C[C@H](NC(=O)[C@H](Cc1ccccc1)NC(=O)c1cnccn1)B(O)O [Bortezomib] (partner 0.002 µM)
Outline: as §1

[1] = compound: Cn1nnc2c(C(N)=O)ncn2c1=O [Temozolomide] + N=C(N)NC(=N)NCCc1ccccc1 [Phenformin] (partner 250 µM)
Outline: as §1

Cell Line	relative viability (AZD5582; 0.001581 µM)	relative viability (AZD5582; 0.005 µM)	relative viability (AZD5582; 0.01581 µM)	relative viability (AZD5582; 0.05 µM)	relative viability (AZD5582 + Pemetrexed; first compound 0.001581 µM)	relative viability (AZD5582 + Pemetrexed; first compound 0.005 µM)	relative viability (AZD5582 + Pemetrexed; first compound 0.01581 µM)	relative viability (AZD5582 + Pemetrexed; first compound 0.05 µM)	relative viability (AZD5582 + Bortezomib; first compound 0.001581 µM)	relative viability (AZD5582 + Bortezomib; first compound 0.005 µM)	relative viability (AZD5582 + Bortezomib; first compound 0.01581 µM)	relative viability (AZD5582 + Bortezomib; first compound 0.05 µM)	relative viability ([1]; first compound 0.2 µM)	relative viability ([1]; first compound 0.6325 µM)	relative viability ([1]; first compound 2 µM)	relative viability ([1]; first compound 6.325 µM)	relative viability ([1]; first compound 20 µM)
LU99A	1.07	1.02	0.954	1.11	0.169	0.186	0.168	0.185	1.24	1.32	1.09	1.46	0.983	0.8	0.865	0.68	0.803
LXF-289	0.958	1.01	0.968	1	0.798	0.815	0.872	0.797	0.985	1.03	0.987	1.05	0.553	0.53	0.511	0.457	0.458
NCI-H23	0.782	0.848	0.477	0.519	0.578	0.514	0.55	0.455	0.84	1.14	0.913	0.676	0.868	0.853	0.789	0.784	0.791
NCI-H322M	1.02	1.15	0.938	1.03	0.705	0.732	0.659	0.785	1.18	1.37	1.18	1.41		0.821	0.811	0.769	0.574
NCI-H441	0.77	0.954	0.869	0.982	0.253	0.314	0.292	0.253	0.379	0.495	0.47	0.418	1.07	0.892	0.93	0.738	0.944
NCI-H460	0.958	0.991	0.965	1.1	0.0644	0.0659	0.0592	0.059	1.02	1.05	1.06	1.34	0.52	0.54	0.492	0.488	0.478
NCI-H520	0.955	1.05	0.947	1.1	0.66	0.755	0.699	0.691	0.702	0.826	0.432	0.757	0.589	0.548	0.675	0.499	0.589
NCI-H596	0.84		0.999	0.358	0.323		0.448	0.263	1.35	1.2	1.13	0.549	0.797	0.827	0.658	0.659	0.787
NCI-H647	0.904	0.971	0.865	0.957	0.126	0.14	0.193	0.124	0.878	0.907	0.997	0.871	0.624	0.626	0.593	0.463	0.208
NCI-H650	0.842	0.982	0.542	0.564	0.843	0.959	0.605	0.644	0.757	0.654	0.57	0.582	0.547	0.443	0.403	0.404	0.423
NCI-H661	0.984	1	0.984	1.07	0.915	0.899	0.98	0.904	0.752	0.927	0.702	0.921	0.252	0.277	0.247	0.279	0.27
NCI-H838	0.895	1.09	0.785	0.975	0.258	0.246	0.235	0.262	0.809	1.21	0.382	0.486	0.63	0.616	0.676	0.568	0.635
NCI-H1355	0.902	1.01	0.771	0.823	0.942	1	0.986	0.815	1.02	1.14	1.11	1.11	0.499	0.517	0.522	0.44	0.452
NCI-H1437	0.915	1	0.979	0.983	0.337	0.294	0.263	0.326	0.389	0.549	0.445	0.446	0.346	0.348	0.378	0.289	0.34
NCI-H1563	0.957	0.936	0.836	1.07	0.682	0.742	0.586	0.861	0.765	0.887	0.788	1.25	0.671	0.689	0.668	0.602	0.643
NCI-H1650	0.87	1.05	0.899	0.759	0.385	0.396	0.362	0.412	0.166	0.192	0.188	0.169	0.458	0.468	0.446	0.424	0.311
NCI-H1651	0.932	1.01	0.952	1.13	0.507	0.562	0.52	0.638	0.831	0.907	0.87	0.987	0.388	0.332	0.353	0.268	0.351

Cell Line	relative viability (AZD5582; 0.001581 µM)	relative viability (AZD5582; 0.005 µM)	relative viability (AZD5582; 0.01581 µM)	relative viability (AZD5582; 0.05 µM)	relative viability (AZD5582 + Pemetrexed; first compound 0.001581 µM)	relative viability (AZD5582 + Pemetrexed; first compound 0.005 µM)	relative viability (AZD5582 + Pemetrexed; first compound 0.01581 µM)	relative viability (AZD5582 + Pemetrexed; first compound 0.05 µM)	relative viability (AZD5582 + Bortezomib; first compound 0.001581 µM)	relative viability (AZD5582 + Bortezomib; first compound 0.005 µM)	relative viability (AZD5582 + Bortezomib; first compound 0.01581 µM)	relative viability (AZD5582 + Bortezomib; first compound 0.05 µM)	relative viability ([1]; first compound 0.2 µM)	relative viability ([1]; first compound 0.6325 µM)	relative viability ([1]; first compound 2 µM)	relative viability ([1]; first compound 6.325 µM)	relative viability ([1]; first compound 20 µM)
NCI-H1666	0.886	0.953	0.971	0.94	0.788	0.879	0.794	0.71	0.717	0.805	0.714	0.73	0.575	0.584	0.585	0.526	0.594
NCI-H1734	0.968	1.11	1.03	1.23	0.406	0.407	0.415	0.437	0.959	0.963	0.966	1.14	0.474	0.454	0.437	0.383	0.342
NCI-H1755	0.939	0.99	0.946	1.05	0.399	0.375	0.387	0.414	0.925	1.02	0.936	1.02	0.68	0.598	0.621	0.547	0.532
NCI-H1792	0.754	0.971	0.712	1.21	0.71	0.881	0.557	1.05	0.92	1.02	0.892	1.22	0.61	0.352	0.328	0.155	0.271
NCI-H1915	0.899	1	0.805	0.947	0.437	0.428	0.506	0.497	0.938	0.991	0.92	0.855	0.393	0.385	0.35	0.268	0.259
NCI-H1975	1	1.13	0.944	1.2	0.266	0.248	0.291	0.235	0.327	0.458	0.373	0.414	0.444	0.423	0.438	0.417	0.423
NCI-H1993	0.758	1.1	0.957	1	0.495	0.527	0.561	0.679	1.06	1.38	1.15	1.1	0.563	0.493	0.469	0.464	0.613
NCI-H2009	0.916	1.09	0.943	0.988	1	1.01	1.03	1.08	0.838	1.13	0.61	0.9	0.521	0.482	0.534	0.402	0.487
NCI-H2023	0.842	0.962	0.84	0.934	0.198	0.216	0.26	0.183	0.934	1.1	0.721	0.716	0.431	0.442	0.467	0.401	0.449
NCI-H2085	1.05	1.08	0.998	0.993	0.999	1.07	0.482	0.848	0.953	1.19	0.933	1.17	0.594	0.707	0.809	0.689	0.649
NCI-H2087	0.98	1.12	0.982	1.03	0.656	0.665	0.662	0.656	0.874	0.861	0.735	0.933	0.49	0.474	0.506	0.458	0.482
NCI-H2126	0.93	1.04	0.808	0.901	0.626	0.689	0.55	0.472	1.08	1.1	1.01	1.05	0.503	0.591	0.574	0.513	0.519
NCI-H2228	1.01	1.05	0.942	0.538	0.281	0.285	0.305	0.21	0.857	1.34	1.36	0.439	0.411	0.508	0.307	0.3	0.351
NCI-H2347	0.956	1.03	0.919	0.979	0.369	0.441	0.41	0.402	0.73	0.949	0.693	0.929	0.34	0.376	0.378	0.387	0.607
NCI-H2405	1	1.12	0.957	1.02	1.05	1.13	1.09	1.12	0.972	1.01	0.88	0.947	0.492	0.395	0.42	0.378	0.431
NCI-H3122	0.938	1.02	1	0.265	0.165	0.152	0.197	0.116	1.03	0.954	1.07	0.729	0.394	0.378	0.385	0.376	0.369
PC-3 [JPC-3]	0.885	0.898	0.9	0.531	0.824	0.957	1.03	0.519	0.8	0.788	0.793	0.38	0.411	0.475	0.5	0.469	0.347
